The target in experiment [1] is T1, rat GPR14 (U-II receptor) (Rattus norvegicus, UniProt P49684).
T1 construct: expressed in transfected cells
T1 sequence (P49684 1-386): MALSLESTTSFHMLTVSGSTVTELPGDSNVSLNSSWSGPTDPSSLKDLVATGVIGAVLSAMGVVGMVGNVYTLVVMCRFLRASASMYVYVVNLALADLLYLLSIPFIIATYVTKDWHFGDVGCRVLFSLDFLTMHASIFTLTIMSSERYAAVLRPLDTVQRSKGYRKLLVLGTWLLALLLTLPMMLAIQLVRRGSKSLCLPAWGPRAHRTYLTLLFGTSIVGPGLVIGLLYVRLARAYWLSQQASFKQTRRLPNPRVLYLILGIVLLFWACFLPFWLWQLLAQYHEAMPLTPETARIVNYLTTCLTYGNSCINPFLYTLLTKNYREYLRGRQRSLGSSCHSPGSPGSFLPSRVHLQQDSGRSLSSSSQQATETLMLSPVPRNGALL
As to the kind of experiment: Rat UII Calcium Mobilization FLIPR Assay. Type of experiment: cell-based. Conditions: average value for the compound tested; read-out: Rat UII FLIPR Average IC50. The essentials:
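Fluorescent calcium signals were recorded at room temperature (23° C) by FLIPR. Stable rat U-II receptor CHO lines had been dye-loaded for 1 h at 37° C in pH 7.4 HBSS containing 20 mM HEPES, 0.1% BSA and 2.5 mM probenecid.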
Background: Calcium assays in cells follow changes in intracellular calcium, usually with a dye or a luminescent sensor.

The target in experiment [2] is T2, Human UII receptor, 6D9 human rhabdomyosarcoma cells (Homo sapiens, UniProt Q9UKP6).
T2 construct: 6D9: isolated by dilution subcloning of RMS13 cells, ATCC® Number: CRL-2061; host or cells: 6D9 human rhabdomyosarcoma cells (subclone of RMS13)
T2 sequence (Q9UKP6 1-389): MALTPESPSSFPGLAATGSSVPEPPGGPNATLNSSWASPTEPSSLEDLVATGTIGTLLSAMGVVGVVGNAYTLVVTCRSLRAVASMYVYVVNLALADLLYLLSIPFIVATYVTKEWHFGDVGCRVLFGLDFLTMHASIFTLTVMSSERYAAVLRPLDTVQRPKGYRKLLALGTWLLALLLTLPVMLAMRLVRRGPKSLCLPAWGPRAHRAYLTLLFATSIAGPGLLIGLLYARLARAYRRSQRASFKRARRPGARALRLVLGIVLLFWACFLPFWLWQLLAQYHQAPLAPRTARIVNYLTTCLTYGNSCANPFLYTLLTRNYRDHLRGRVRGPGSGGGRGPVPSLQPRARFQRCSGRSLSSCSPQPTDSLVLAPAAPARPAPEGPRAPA
As to the kind of experiment: Human UII Calcium Mobilization Assay. Conditions: average value, FLIPR TETRA, read-out: Human UII Ca^+ Mobilization Average IC50. Type of experiment: cell-based. The essentials: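 FLIPR calcium responses were recorded for 4 minutes after room-temperature addition of test antagonist and U-II, in dye-loaded human 6D9 cells (37° C, 45 min; HBSS/HEPES with probenecid 1.25 mM). Compounds serially diluted in HBSS/HEPES, up to 0.1% DMSO; curves gave IC50 and EC50.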

Experiment [3] addresses T3, endogenous human UII receptor (Homo sapiens, UniProt Q9UKP6).
T3 sequence (Q9UKP6 1-389): T2 sequence (Q9UKP6 1-389)
As to the kind of experiment: Human Radioligand Binding Assay ((^125I)-U-II binding to human skeletal muscle myoblasts).

For the molecule `CCOCC(=O)NCCC[C@H](c1ccc(OC)c(OC)c1)N1C(=O)c2cccc(N3CCN([C@H](C)c4ccccc4)CC3)c2C1=O` [Cpd 182, (R)-N-(4-(3,4-dimethoxy-phenyl)-4-{1,3-dioxo-4-[4-(1R)-(1-phenyl-ethyl)-piperazin-1-yl]-1,3-dihydro-isoindol-2-yl}-butyl)-2-ethoxy-acetamide], the concentration for half-maximal inhibition (IC50) in experiment [1] was determined as 9.6 nM; in experiment [2], 580 nM. In experiment [3], the affinity corresponds to a Ki of 40 nM.

On to `COc1ccc([C@@H](CCCNC(=O)c2cnn(C)c2Cl)N2C(=O)c3cccc(N4CCN([C@H](C)c5ccccc5)CC4)c3C2=O)cc1OC` [Cpd 183, (R)-5-chloro-1-methyl-1H-pyrazole-4-carboxylic acid (4-(3,4-dimethoxy-phenyl)-4-{1,3-dioxo-4-[4-(1R)-(1-phenyl-ethyl)-piperazin-1-yl]-1,3-dihydro-isoindol-2-yl}-butyl)-amide], for which the concentration for half-maximal inhibition (IC50) came to 19 nM in experiment [1] and 1300 nM in experiment [2]. In experiment [3], this molecule returned a Ki of 55 nM.

In the case of `COc1ccc([C@@H](CCCNC(=O)c2c(C)nn(C)c2C)N2C(=O)c3cccc(N4CCN([C@H](C)c5ccccc5)CC4)c3C2=O)cc1OC` [Cpd 184, (R)-1,3,5-trimethyl-1H-pyrazole-4-carboxylic acid (4-(3,4-dimethoxy-phenyl)-4-{1,3-dioxo-4-[4-(1R)-(1-phenyl-ethyl)-piperazin-1-yl]-1,3-dihydro-isoindol-2-yl}-butyl)-amide], the results for the IC50 in experiment [1] and in experiment [2] were 15 nM and 1100 nM, respectively. This molecule also yielded a Ki in experiment [3] of 56 nM.

In the case of `COc1ccc([C@@H](CCCNC(=O)C(C)(C)C)N2C(=O)c3cccc(N4CCN([C@H](C)c5ccccc5)CC4)c3C2=O)cc1OC` [Cpd 185, (R)-N-(4-(3,4-dimethoxy-phenyl)-4-{1,3-dioxo-4-[4-(1R)-(1-phenyl-ethyl)-piperazin-1-yl]-1,3-dihydro-isoindol-2-yl}-butyl)-2,2-dimethyl-propionamide], the IC50 in experiment [1] amounted to 9.8 nM; in experiment [2], 1000 nM. The molecule also returned a Ki in experiment [3] of 23 nM.

Take `COc1ccc([C@@H](CCCNC(=O)c2ccoc2)N2C(=O)c3cccc(N4CCN([C@H](C)c5ccccc5)CC4)c3C2=O)cc1OC` [Cpd 186, (R)-furan-3-carboxylic acid (4-(3,4-dimethoxy-phenyl)-4-{1,3-dioxo-4-[4-(1R)-(1-phenyl-ethyl)-piperazin-1-yl]-1,3-dihydro-isoindol-2-yl}-butyl)-amide]: the IC50 in experiment [1] is 13 nM; in experiment [2], 820 nM. In experiment [3], the affinity, expressed as Ki, was 37 nM.

Turning to `COc1ccc([C@@H](CCCNC(=O)c2ccno2)N2C(=O)c3cccc(N4CCN([C@H](C)c5ccccc5)CC4)c3C2=O)cc1OC` [Cpd 187, (R)-isoxazole-5-carboxylic acid (4-(3,4-dimethoxy-phenyl)-4-{1,3-dioxo-4-[4-(1R)-(1-phenyl-ethyl)-piperazin-1-yl]-1,3-dihydro-isoindol-2-yl}-butyl)-amide], the results for the IC50 in experiment [1] and in experiment [2] were 11 nM and 910 nM, respectively. In experiment [3], affinity was put at a Ki of 50 nM.

On to `COc1ccc([C@@H](CCCNC(=O)c2cc(C)[nH]c2C)N2C(=O)c3cccc(N4CCN([C@H](C)c5ccccc5)CC4)c3C2=O)cc1OC` [Cpd 188, (R)-2,5-dimethyl-1H-pyrrole-3-carboxylic acid (4-(3,4-dimethoxy-phenyl)-4-{1,3-dioxo-4-[4-(1R)-(1-phenyl-ethyl)-piperazin-1-yl]-1,3-dihydro-isoindol-2-yl}-butyl)-amide], for which the results for the IC50 in experiment [1] and in experiment [2] were 20 nM and 1300 nM, respectively. For the same molecule, the affinity in experiment [3], expressed as Ki, was 120 nM.

Turning to `CCOCCC(=O)NCCC[C@H](c1ccc(OC)c(OC)c1)N1C(=O)c2cccc(N3CCN([C@H](C)c4ccccc4)CC3)c2C1=O` [Cpd 189, (R)-N-(4-(3,4-dimethoxy-phenyl)-4-{1,3-dioxo-4-[4-(1R)-(1-phenyl-ethyl)-piperazin-1-yl]-1,3-dihydro-isoindol-2-yl}-butyl)-3-ethoxy-propionamide], the half-inhibitory concentration (IC50) in experiment [1] worked out at 8.6 nM; in experiment [2], 1100 nM. Affinity in experiment [3] was put at a Ki of 57 nM.

For `COc1ccc([C@@H](CCCNC(=O)c2cn[nH]c2)N2C(=O)c3cccc(N4CCN([C@H](C)c5ccccc5)CC4)c3C2=O)cc1OC` [Cpd 190, (R)-1H-pyrazole-4-carboxylic acid (4-(3,4-dimethoxy-phenyl)-4-{1,3-dioxo-4-[4-(1R)-(1-phenyl-ethyl)-piperazin-1-yl]-1,3-dihydro-isoindol-2-yl}-butyl)-amide], the results for the IC50 in experiment [1] and in experiment [2] were 6.1 nM and 290 nM, respectively. This molecule also gave a Ki in experiment [3] of 20 nM.

In the case of `COc1ccc([C@@H](CCCNC(=O)[C@@H]2CCCN2C)N2C(=O)c3cccc(N4CCN([C@H](C)c5ccccc5)CC4)c3C2=O)cc1OC` [Cpd 191, (S)-1-methyl-pyrrolidine-2-carboxylic acid (R)-(4-(3,4-dimethoxy-phenyl)-4-{1,3-dioxo-4-[4-(1R)-(1-phenyl-ethyl)-piperazin-1-yl]-1,3-dihydro-isoindol-2-yl}-butyl)-amide], the concentration for half-maximal inhibition (IC50) turned out to be 31 nM in experiment [1] and 1500 nM in experiment [2]. In experiment [3], this molecule yielded a Ki of 69 nM.

As to `COc1ccc([C@@H](CCCNS(=O)(=O)c2cccs2)N2C(=O)c3cccc(N4CCN(C5CCC5)CC4)c3C2=O)cc1OC` [Cpd 192, (R)-thiophene-2-sulfonic acid [4-[4-(4-cyclobutyl-piperazin-1-yl)-1,3-dioxo-1,3-dihydro-isoindol-2-yl]-4-(3,4-dimethoxy-phenyl)-butyl]-amide], the IC50 in experiment [1] turned out to be 7 nM; in experiment [2] it was 640 nM. Further, the affinity in experiment [3], expressed as Ki, was 30 nM.

On to `COc1ccc([C@@H](CCCNS(=O)(=O)c2cccs2)N2C(=O)c3cccc(N4CCN(C5CCCC5)CC4)c3C2=O)cc1OC` [Cpd 193, (R)-thiophene-2-sulfonic acid [4-[4-(4-cyclopentyl-piperazin-1-yl)-1,3-dioxo-1,3-dihydro-isoindol-2-yl]-4-(3,4-dimethoxy-phenyl)-butyl]-amide], for which the concentration for half-maximal inhibition (IC50) in experiment [1] worked out at 7.9 nM; in experiment [2] it was 520 nM. The Ki in experiment [3] was 86 nM.

With `C=CCN1CCN(c2cccc3c2C(=O)N([C@H](CCCNS(=O)(=O)c2cccs2)c2ccc(OC)c(OC)c2)C3=O)CC1` [Cpd 194, (R)-thiophene-2-sulfonic acid [4-[4-(4-allyl-piperazin-1-yl)-1,3-dioxo-1,3-dihydro-isoindol-2-yl]-4-(3,4-dimethoxy-phenyl)-butyl]-amide], the IC50 in experiment [1] worked out at 10 nM; in experiment [2], 990 nM. The Ki in experiment [3] was 170 nM.

Consider `COc1ccc([C@@H](CCCNS(=O)(=O)c2cccs2)N2C(=O)c3cccc(N4CCN(C5CCCCC5)CC4)c3C2=O)cc1OC` [Cpd 196, (R)-thiophene-2-sulfonic acid [4-[4-(4-cyclohexyl-piperazin-1-yl)-1,3-dioxo-1,3-dihydro-isoindol-2-yl]-4-(3,4-dimethoxy-phenyl)-butyl]-amide], for which the 50% inhibitory concentration (IC50) in experiment [1] was 22 nM; in experiment [2], 1200 nM. For the same molecule, in experiment [3], the inhibitory constant (Ki) is 380 nM.

For the molecule `CCN1CCN(c2cccc3c2C(=O)N([C@H](CCCNC(=O)OC(C)(C)C)c2ccc(OC)c(OC)c2)C3=O)CC1` [Cpd 197, (R)-{4-(3,4-dimethoxy-phenyl)-4-[4-(4-ethyl-piperazin-1-yl)-1,3-dioxo-1,3-dihydro-isoindol-2-yl]-butyl}-carbamic acid tert-butyl ester], the IC50 is 82 nM in experiment [1] and 540 nM in experiment [2]. Besides, the Ki in experiment [3] amounted to 220 nM.

Broadly, the IC50 is the point on the concentration scale where inhibition reaches its midpoint. Usually Ki stands for a dissociation constant, usually derived from enzyme kinetics or from competition with a known ligand.

These data come from patent publication US8193191B2, “Urotensin II receptor antagonists” (Janssen Pharmaceutica N.V., priority 2006, dated 2012).
